Target: T1, Recombinant human CDK9/cyclin T1 (Homo sapiens, UniProt P50750)
T1 construct: purchased Carna bioscience 04-110
Assay: CDK9 enzyme inhibitory activity (ADP-Glo kinase assay)
Format: biochemical
Conditions: CDK9 enzyme activity, average of two independent repeats; for inhibition at 0.01 µM: compound 10 nM, read-out: Inhibition rate at different concentrations (%) 10 nM; for inhibition at 0.1 µM: compound 100 nM, read-out: Inhibition rate at different concentrations (%) 100 nM
Protocol: Experimental method: Recombinant human CDK9/cyclin T1 (Carna bioscience, Cat #04-110) was diluted with dilution buffer (20 mM Tris HCl (pH 7.5), 0.02% Triton X-100, 0.01% BSA, 2 mM DTT, 0.5 mM Na3VO4, 10% Glycerol) to […], the substrates CDK7/9 tide (ThermoFisher, Cat #PV5090) and ATP (sigmaaldrich, Cat #A1852) were diluted with assay buffer (25 mM Tris HCl (pH7.5), 10 mM MgCl2, 0.5 mM EGTA (pH 8), 0.5 mM Na3VO4, 5 mMb-glycerol phosphate, 0.1% Triton X-100, 2.5 mM DTT) to final concentrations of 100 μM and […] respectively, aliquot and set aside. 2 μl of diluted recombinant human CDK9/cyclin T1, 1 μl of test compound, and 2 μl of diluted substrate CDK7/9 tide containing ATP were added to the 384-well plate. […] The positive control was the well in which enzyme and substrate were co-incubated, and the negative control was the well in which dilution buffer and substrate were co-incubated. The inhibition rate was calculated according to the following formula.

T1 sequence (P50750 whole entry): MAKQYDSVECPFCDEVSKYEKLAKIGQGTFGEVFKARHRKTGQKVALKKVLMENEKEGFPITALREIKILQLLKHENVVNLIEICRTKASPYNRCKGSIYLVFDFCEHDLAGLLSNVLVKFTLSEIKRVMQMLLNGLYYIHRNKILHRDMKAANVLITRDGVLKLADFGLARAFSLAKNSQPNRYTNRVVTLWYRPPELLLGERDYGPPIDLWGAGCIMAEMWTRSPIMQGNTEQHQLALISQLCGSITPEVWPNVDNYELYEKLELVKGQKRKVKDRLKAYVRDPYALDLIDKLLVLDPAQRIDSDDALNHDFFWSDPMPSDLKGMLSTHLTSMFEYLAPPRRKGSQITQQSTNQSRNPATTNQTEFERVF
T1 sequence (O60563 whole entry partner): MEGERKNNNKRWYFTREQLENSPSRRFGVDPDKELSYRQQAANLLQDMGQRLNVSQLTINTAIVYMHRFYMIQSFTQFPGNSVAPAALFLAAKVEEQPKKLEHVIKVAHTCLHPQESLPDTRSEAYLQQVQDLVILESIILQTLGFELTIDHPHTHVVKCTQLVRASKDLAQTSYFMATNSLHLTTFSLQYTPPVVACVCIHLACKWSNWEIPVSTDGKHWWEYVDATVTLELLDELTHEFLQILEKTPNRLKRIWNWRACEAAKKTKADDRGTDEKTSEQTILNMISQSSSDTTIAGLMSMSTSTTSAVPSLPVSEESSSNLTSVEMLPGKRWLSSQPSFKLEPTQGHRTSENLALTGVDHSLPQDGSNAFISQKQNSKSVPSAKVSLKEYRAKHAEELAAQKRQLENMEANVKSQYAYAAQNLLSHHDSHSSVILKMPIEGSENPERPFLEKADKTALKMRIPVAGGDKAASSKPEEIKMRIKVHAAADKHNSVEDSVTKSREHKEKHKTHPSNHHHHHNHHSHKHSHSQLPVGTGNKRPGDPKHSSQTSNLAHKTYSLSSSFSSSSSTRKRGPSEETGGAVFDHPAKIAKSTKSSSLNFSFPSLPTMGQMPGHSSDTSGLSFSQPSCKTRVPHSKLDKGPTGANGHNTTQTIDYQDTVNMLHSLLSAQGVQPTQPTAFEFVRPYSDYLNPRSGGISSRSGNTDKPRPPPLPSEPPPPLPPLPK

inhibition at 0.01 µM [%]	inhibition at 0.1 µM [%]	SMILES
54	90.9	CC1(C)Cc2c(-c3cc(NC(=O)NC4CCC(NCCO)CC4)ncc3Cl)cnn2C1 (centres unmarked) [Example 62, 1-(5-chloro-4-(5,5-dimethyl-5,6-dihydro-4H-pyrrolo[1,2-b]pyrazol-3-yl)pyridin-2-yl)-3-((1r,4r)-4-((2-hydroxyethyl)amino)cyclohexyl)urea]
72	95.7	CC(=O)NC1CCC(NC(=O)Nc2cc(-c3cnn4c3CC(C)(C)C4)ccn2)CC1 (centres unmarked) [Example 16, 1-((1r,4r)-4-(3-(4-(5,5-dimethyl-5,6-dihydro-4H-pyrrolo[1,2-b]pyrazol-3-yl)pyridin-2-yl)ureido)cyclohexyl)acetamide]
-17.5	72.3	Cn1cc(-c2ccnc(NC(=O)NC3CCC(N)CC3)c2)cn1 (centres unmarked) [Example 13, 1-((1r,4r)-4-aminocyclohexyl)-3-(4-(1-methyl-1H-pyrazol-4-yl)pyridin-2-yl) urea]
65.1	98.2	[2H]C([2H])([2H])OCCNC1CCC(NC(=O)Nc2cc(-c3cnn4c3CC(C)(C)C4)c(Cl)cn2)CC1 (centres unmarked) [Example 58, 1-(5-chloro-4-(5,5-dimethyl-5,6-dihydro-4H-pyrrolo[1,2-b]pyrazol-3-yl)pyridin-2-yl)-3-((1r,4r)-4-((2-(methoxy-d3)ethyl)amino)cyclohexyl)urea]
34.3	81.1	COc1cc(-c2ccnc(NC(=O)NC3CCC(N)CC3)c2)c(F)cc1F (centres unmarked) [Example 7, 1-((1r,4r)-4-aminocyclohexyl)-3-(4-(2,4-difluoro-5-methoxyphenyl)pyridine-2-yl)urea]
38.9	88.3	COc1cc(F)ccc1-c1cc(NC(=O)NC2CCC(NCCO)CC2)ncc1Cl (centres unmarked) [Example 20, 1-(5-chloro-4-(4-fluoro-2-methoxyphenyl)pyridin-2-yl)-3-((1r,4r)-4-((2-hydroxyethyl)amino)cyclohexyl)urea]
48	56	COCCNC1CCCC(NC(=O)Nc2cc(-c3cnn4c3CC(C)(C)C4)c(Cl)cn2)C1 (centres unmarked) [Example 80, 1-(5-chloro-4-(5,5-dimethyl-5,6-dihydro-4H-pyrrolo[1,2-b]pyrazol-3-yl)pyridin-2-yl)-3-(3-((2-methoxyethyl)amino)cyclohexyl)urea]
57	69	COCCNC1CCC(NC(=O)Nc2cc(-c3cnn4c3CC(C)(C)C4)c(Cl)cn2)CC1 (centres unmarked) [Example 66, 1-(5-chloro-4-(5,5-dimethyl-5,6-dihydro-4H-pyrrolo[1,2-b]pyrazol-3-yl)pyridin-2-yl)-3-((1s,4s)-4-((2-methoxyethyl)amino)cyclohexyl)urea]
32	74.1	COc1cc(-c2ccnc(NC(=O)NC3CCC(N)CC3)c2)ccc1F (centres unmarked) [Example 6, 1-((1r,4r)-4-aminocyclohexyl)-3-(4-(4-fluoro-3-methoxyphenyl)pyridin-2-yl)urea]
55	86.5	CC1(C)Cc2c(-c3cc(NC(=O)NC4CCC(NCCOC(F)(F)F)CC4)ncc3Cl)cnn2C1 (centres unmarked) [Example 57]
-7.6	72.3	COCCNC1CCC(NC(=O)Nc2cc(-c3cnn(C)c3)ccn2)CC1 (centres unmarked) [Example 14, 1-((1r,4r)-4-((2-methoxyethyl)amino)cyclohexyl)-3-(4-(1-methyl-1H-pyrazol-4-yl)pyridine-2-yl) urea]
44.9	95.2	CN(C)CCNC1CCC(NC(=O)Nc2cc(-c3cnn4c3CC(C)(C)C4)c(Cl)cn2)CC1 (centres unmarked) [Example 56, 1-(5-chloro-4-(5,5-dimethyl-5,6-dihydro-4H-pyrrolo[1,2-b]pyrazol-3-yl)pyridin-2-yl)-3-((1r,4r)-4-((2-(dimethylamino)ethyl)amino)cyclohexyl)urea]
51.1	91.5	CC1(C)Cc2c(-c3ccnc(NC(=O)NC4CCC(N)CC4)c3)cnn2C1 (centres unmarked) [Example 15, 1-((1r,4r)-4-aminocyclohexyl)-3-(4-(5,5-dimethyl-5,6-dihydro-4H-pyrrole [1,2-b]pyrazole-3-yl)pyridin-2-yl) urea]

More lines, now with the values behind:

SMILES	inhibition at 0.01 µM [%]	inhibition at 0.1 µM [%]
NC1CCC(NC(=O)Nc2cc(-c3ccc(F)cc3Cl)ccn2)CC1 (centres unmarked) [Example 10, 1-((1r,4r)-4-aminocyclohexyl)-3-(4-(2-chloro-4-fluorophenyl)pyridin-2-yl) urea]	-12.6	94.6
COCC(C)NC1CCC(NC(=O)Nc2cc(-c3cnn4c3CC(C)(C)C4)c(Cl)cn2)CC1 (centres unmarked) [Example 55, 1-(5-chloro-4-(5,5-dimethyl-5,6-dihydro-4H-pyrrolo[1,2-b]pyrazol-3-yl)pyridin-2-yl)-3-((1r,4r)-4-((1-methoxypropan-2-yl)amino)cyclohexyl)urea]	61.3	93.1
CC(=O)N[C@H]1CC[C@H](NC(=O)Nc2cc(-c3cnn4c3CC(C)(C)C4)c(Cl)cn2)C1 (stereo in doubt) [Example 74, N-((1S,3S)-3-(3-(5-chloro-4-(5,5-dimethyl-5,6-dihydro-4H-pyrrolo[1,2-b]pyrazol-3-yl)pyridin-2-yl)ureido)cyclopentyl)acetamide]	63	92
CC(=O)NC1CCC(NC(=O)Nc2cc(-c3cnn(C)c3C)c(Cl)cn2)CC1 (centres unmarked) [Example 43, N-((1r,4r)-4-(3-(5-chloro-4-(1,5-dimethyl-1H-pyrazol-4-yl)pyridin-2-yl)ureido)cyclohexyl)acetamide]	49	87.3
COc1cc(F)ccc1-c1cc(NC(=O)NC2CCC(NC(C)=O)CC2)ncn1 (centres unmarked) [Example 40, N-((1r,4r)-4-(3-(6-(4-fluoro-2-methoxyphenyl)pyrimidin-4-yl)ureido)cyclohexyl)acetamide]	25.3	59.5
CC1(C)Cc2c(-c3cc(NC(=O)NC4CCCNCC4)ncc3Cl)cnn2C1 (centres unmarked) [Example 69, 1-(azepan-4-yl)-3-(5-chloro-4-(5,5-dimethyl-5,6-dihydro-4H-pyrrolo[1,2-b]pyrazol-3-yl)pyridin-2-yl)urea]	33.8	79.5
CC1(C)Cc2c(-c3cc(NC(=O)NCCCNC(=O)OC(C)(C)C)ncc3Cl)cnn2C1 [Example 71, tert-butyl (3-(3-(5-chloro-4-(5,5-dimethyl-5,6-dihydro-4H-pyrrolo[1,2-b]pyrazol-3-)pyridin-2-yl)ureido)propyl)carbamate]	34	64
CC(=O)NC1CCC(NC(=O)Nc2cc(-c3cnn4c3CC(C)(C)C4)c(F)cn2)CC1 (centres unmarked) [Example 51, N-((1r,4r)-4-(3-(4-(5,5-dimethyl-5,6-dihydro-4H-pyrrolo[1,2-b]pyrazol-3-yl)-5-fluoropyridin-2-yl)ureido)cyclohexyl)acetamide]	60.2	92.8
CCNC1CCCC(NC(=O)Nc2cc(-c3cnn4c3CC(C)(C)C4)c(Cl)cn2)C1 (centres unmarked) [Example 78, 1-(5-chloro-4-(5,5-dimethyl-5,6-dihydro-4H-pyrrolo[1,2-b]pyrazol-3-yl)pyridin-2-yl)-3-(3-(ethylamino)cyclohexyl)urea]	68	80
CN(C)CC(=O)NC1CCC(NC(=O)Nc2cc(-c3cnn4c3CC(C)(C)C4)c(Cl)cn2)CC1 (centres unmarked) [Example 48, N-((1r,4r)-4-(3-(5-chloro-4-(5,5-dimethyl-5,6-dihydro-4H-pyrrolo [1,2-b]pyrazol-3-yl)pyridin-2-yl)ureido)cyclohexyl)-2-(dimethylamino)acetamide]	54	74
COc1cc(F)ccc1-c1cc(NC(=O)NC2CCC(NC(C)=O)CC2)ncc1Cl (centres unmarked) [Example 22, N-((1r,4r)-4-(3-(5-chloro-4-(4-fluoro-2-methoxyphenyl)pyridin-2-yl)ureido)cyclohexyl)acetamide]	62.9	93.5
COc1cc(F)ccc1-c1cc(NC(=O)NC2CCC(NC(C)=O)CC2)ncc1F (centres unmarked) [Example 30, N-((1r,4r)-4-(3-(5-fluoro-4-(4-fluoro-2-methoxyphenyl)pyridin-2-yl)ureido)cyclohexyl)acetamide]	23.1	55.3
COc1cc(F)ccc1-c1cc(NC(=O)NC2CCC(NC(=O)CN(C)C)CC2)ncc1Cl (centres unmarked) [Example 28, N-((1r,4r)-4-(3-(5-chloro-4-(4-fluoro-2-methoxyphenyl)pyridin-2-yl)ureido)cyclohexyl)-2-(dimethylamino)acetamide]	29.5	84.3
COCCN(C)C1CCC(NC(=O)Nc2cc(-c3cnn4c3CC(C)(C)C4)c(Cl)cn2)CC1 (centres unmarked) [Example 90, 1-(5-chloro-4-(5,5-dimethyl-5,6-dihydro-4H-pyrrolo[1,2-b]pyrazol-3-yl)pyridin-2-yl)-3-((1r,4r)-4-((2-methoxyethyl)(methyl)amino)cyclohexyl)urea]	61	98
COc1cc(F)ccc1-c1ccnc(NC(=O)Nc2ccc(F)nc2)c1 [Example 33, 1-(4-(4-fluoro-2-methoxyphenyl)pyridin-2-yl)-3(6-fluoropyridin-3-yl)urea]	11.9	81
